| SMILES | melting point [°C] |
| --- | --- |
| NS(=O)(=O)c1ccc2c(c1)S(=O)(=O)NC(C1CCCCC1)N2 (stereo unspecified) | 252 to 254 |
| Cc1cc(C(=O)N(C)C)cc(N)n1 | 165 to 171 |
| CCOC(=O)c1ncn(C2OC(COC(=O)c3ccccc3)C(OC(=O)c3ccccc3)C2OC(=O)c2ccccc2)c1C(=O)OCC (stereo unspecified) | 134 to 136 |
| CC(=O)OC1=CC(NC(=O)CCc2ccc(Cl)cc2Cl)C(=O)N(C)c2ccccc21 (stereo unspecified) | 142 to 144 |
| CCc1nc2c(cnn2CC)c(NC2CCOCC2)c1CNC(=O)c1cccc(C(=O)NCc2cc(Cl)cc(-c3cccc(CN4CCNC(C)C4)c3)c2)c1 (stereo unspecified) | 119 to 121 |
| CN(C)S(=O)(=O)c1ccc(NC(=O)C2(C)CC2)cc1C(F)(F)F | 153 to 156 |
| O=C(O)C1=Cc2cc(Cl)c(Oc3ccc([N+](=O)[O-])cc3)cc2OC1C(F)(F)F (stereo unspecified) | 246 to 248 |
| COCCCCC(=O)c1cc(C(=O)O)c2cc(Cc3ccc(F)cc3)cnc2c1O | 216 to 218 |
| CC(C)CCC1(c2ccccc2)CC(O)=C(Sc2ccccc2)C(=O)O1 (stereo unspecified) | 154 to 155 |
| CC#CCOc1ccc([S@](=O)[C@@H](CCCCCC)C(=O)O)cc1 | 112 |
| CN(C)c1ccccc1CS(=O)(=O)c1nccn1-c1ccncc1 | 132 to 135 |
| O=C1CSC(=S)N1N=c1sc2ccccc2s1 | 295 to 300 |
| COC(=O)Nc1cc(-c2nccs2)[nH]c1C(CC1CCOCC1)c1ccc(S(=O)(=O)C2CC2)cc1 (stereo unspecified) | 120 to 122 |
| CN1CCN(c2cccc3ccc(Nc4ccc([N+](=O)[O-])cc4[N+](=O)[O-])cc23)CC1 | 153 to 154 |
| CSc1ccc(C(CC2CCCO2)C(=O)O)cc1Cl (stereo unspecified) | 93 to 96 |
| CCOC(=O)C(C(=O)OCC)c1cc(=O)n(-c2ccccc2)c2ccccc12 | 101 to 103 |
| Cc1ncc(CCCCC(=O)O)s1 | 75 |
| Cc1c(C)c2c(c(C)c1O)CCC(C)(CC(=O)N(C)C)O2 (stereo unspecified) | 142 |
| O=C(O)[C@H]1Cc2ccccc2CN1S(=O)(=O)c1ccc([N+](=O)[O-])cc1 | 140 |
| C=C(CC(=O)OCC)c1cc(F)c2cc(OC)ccc2c1 | 50 to 52 |
| Cn1cnc(S(=O)(=O)Nc2cc(C(c3cc(F)ccc3F)S(=O)(=O)c3ccc(Cl)cc3)c(Cl)cn2)c1 (stereo unspecified) | 294 to 296 |
| O=C(C1COc2ccccc2O1)N1CCNCC1 (stereo unspecified) | 84 to 85 |

| SMILES | melting point [°C] |
| --- | --- |
| CCc1nc(N)nc2c1nc(NC)n2C1CC(N=[N+]=[N-])C(CO)O1 (stereo unspecified) | 38 to 43 |
| CCOC(=O)CNC(=O)CS(=O)(=O)Nc1ccc(F)c(C(F)(F)F)c1 | 145 to 147 |
| CC1Cc2c(nc3ccc(F)cc3c2C(=O)O)-c2ccc(-c3ccccc3F)cc21 (stereo unspecified) | 274 to 277 |
| Nc1cc(N2CCN(C34CC5CC(CC(C5)C3)C4)CC2)nc(N)n1 | 265 to 268 |
| O=C(N[C@H](Cc1ccc(CC(F)(F)C(F)(F)F)cc1)[C@@H](O)c1cccc(Cl)c1)c1cccc2c(Cl)cccc12 (racemic) | 216 to 217 |
| Cn1c(=O)n(CCCC(NS(=O)(=O)c2ccc(-c3ccc(Cl)cc3)cc2)C(=O)O)c(=O)c2ccccc21 (stereo unspecified) | 188 to 191 |
| CC(=O)Nc1ccc(S(=O)(=O)F)cc1 | 169 to 171 |
| CC(C)C[C@H](NC(=O)C(CS)C(F)(F)F)C(=O)O (stereo partly specified) | 132 to 134 |
| CCCCc1nc2cccc(CC#N)c2n1Cc1ccccc1Cl | 124 to 125 |
| Nc1ccc(C2=NN3C(=O)OCC3Cc3cc4c(cc32)OCO4)cc1 (stereo unspecified) | 173 to 175 |
| CN(CCS(C)(=O)=O)C1CCN(S(=O)(=O)c2ccc(Nc3nccc(-c4ccc(F)cc4)n3)cc2)CC1 | 166 |
| C=CCCCc1cc(-c2ccc(F)cc2)nc(C)n1 | 44.5 to 45.5 |
| COc1ccc(N2CCN(c3c(C)c4c(c(OC(C)C)c3C)OC(C)C4)CC2)cc1 (stereo unspecified) | 110 to 112 |
| C#CCOC(=O)c1ncn2c1CN(C)C(=O)c1c(Cl)cccc1-2 | 198 to 200 |
| Cc1ccc2c(n1)Oc1ccc(C(C)C(=O)OCC(=O)N(C)C)cc1C2 (stereo unspecified) | 150 to 151 |
| COC(=O)c1cc(F)c(F)c2ccc(C)nc12 | 99 to 101 |
| CCOC(=O)c1ccc(C(CCc2cc(Cl)ccc2N2CCCCC2)C(N)=O)cc1 (stereo unspecified) | 95 to 97 |
| CCOC(=O)c1c(NCCCC(=O)c2ccccc2)c2c(Cl)cc(Cl)cc2n1C(=O)OC(C)(C)C | 110 to 111 |
| O=c1ccc2c(O)cc(O)cc2[nH]1 | > 300 |
| Cc1c(Cl)nc2c(C=O)cnn2c1Cl | 137 to 139 |
| O=C1CCC(c2ccc(O)cc2)CC1 | 165 to 166 |

Continued, values first:

| melting point [°C] | SMILES |
| --- | --- |
| 68 | C=C(CCC(=O)O)CC(N)C(=O)O (stereo unspecified) |
| 111 to 112 | Cc1sc(-c2ccccc2)nc1COc1ccc(COc2ncccc2CO)cc1 |
| 219 to 220 | CCOC(=O)Nc1nc(=O)c2cnn3c2n1CC=C3c1cccc(C(F)(F)F)c1 |
| 66 to 68 | O=C(O)c1ccc2cc(OCCCCCCc3cccc(OCc4ccccc4)c3OCc3ccccc3)ccc2c1 |
| 49 to 50 | COC(=O)c1ncoc1C(C)C |
| 164 to 169 | Fc1ccc(OC(=S)Nc2ccc(-c3ncn(-c4ccc(OC(F)(F)F)cc4)n3)cc2)cc1 |
| 119 to 123 | COc1cc2c(c(Cl)c1Cl)SC(C(C)C)C2O (stereo unspecified) |
| 184 to 186 | CN1C(=O)C(C)(C)c2ccc(C(=O)Nc3ccccc3)cc21 |
| 68 | Clc1cnc(Oc2cccc(C=C(Br)Br)c2)nc1 |
| 237 to 239 | CC(=O)OC1Cc2ccc(N)cc2C1 (stereo unspecified) |
| 128 to 129 | COc1cccc(OC2COc3ccc(OCc4ccc5ccccc5n4)cc3C2O)c1 (stereo unspecified) |
| 172 | CN1C(=O)NC(Cc2ccccc2)C1=O (stereo unspecified) |
| 160 | COC(=O)c1cc(C(=O)c2c(C)c(-c3cccc(OCC(=O)O)c3)c3ccccn23)ccc1N |
| 93 to 94 | C=Cc1ccc(OCc2ccccc2)cc1OCC(=O)c1ccc(OC)cc1 |
| 251 to 252 | Cc1nnc(-c2cnc3occ(-c4ccc(S(C)(=O)=O)cc4)c3c2)o1 |
| 149 to 151 | CCC(OC(=O)C1CC1)c1ccc(Cl)c2nc3n(c12)CCCN3c1ccc(OC)nc1C (stereo unspecified) |
| 144 to 145 | O=C(c1cccnc1)c1cc2cc(Br)ccc2o1 |
| 143 to 144 | O=C(NCC12CC3CC(CC(C3)C1)C2)c1cc(F)ccc1Br |
| 250 to 251 | Cc1cc2nc3c4cc(N)ccc4n(CCN(C)C)c3nc2cc1C |
| 103 to 105 | CCOC(=O)Cc1nc(-c2cc(C(C)(C)C)c(O)c(C(C)(C)C)c2)oc1C |
| 128 | Cc1cccc2c1C(=O)C1(CC1)S2 |
| 222 to 224 | COc1cc(C(C)C)ccc1C1(NC(C)=O)C(=O)c2ccccc2C1=O |
| 150 to 152 | CC(C)NC(=O)N1CC(Oc2cccc(C(F)(F)F)c2)C1 |
| 151 to 154 | C=CC(=O)NC1=NN(c2c(Cl)cc(Cl)cc2Cl)C(=O)C1c1cc[nH]n1 (stereo unspecified) |
| 140 | Cc1cc(C)c(CC(=O)N(C)CC(=O)O)c(C)c1 |
| > 250 | Cn1cc(Br)nc(Nc2cccnc2)c1=O |
| 307 to 310 | O=C(c1ccccc1)c1ccc(-c2ccc(-c3ccc(-c4ccc(C(=O)c5ccccc5)s4)s3)s2)s1 |
| 190 to 192 | Cc1nc2cc(C(F)(F)F)ccc2n1N |
